From the supplement of paper PMC11061612

Tests used:
[1] = tested on: NCI-H720 (Other Solid Carcinomas); test: Bliss excess, mean over the matrix (fraction); higher = more synergy
Procedure, shortened: (§1)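 Cell lines in DMEM/F12 or RPMI with 10% FBS were plated in 1536-well plates, held 24 hours at 37°C, 5% CO2, then given two-drug dose matrices for 72 hours (DMSO typically 0.2%). Viability was read by CellTiter-Glo 2.0 luminescence and scaled as inhibition from 0 (vehicle wells) to 1 (blank wells). Combination Emax is the second-highest inhibition in the matrix; Bliss excess is observed combination effect minus expected EA + EB − EA·EB, EA and EB being single-agent effects.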

[2] = tested on: NCI-H1568 (Lung Adenocarcinoma); test: as above
Procedure, shortened: as §1

[3] = tested on: OV-56 (Ovarian Carcinoma); test: as above
Procedure, shortened: as §1

[4] = tested on: LS-123 (Colorectal Carcinoma); test: as above
Procedure, shortened: as §1

[5] = tested on: Hs-746T (Gastric Carcinoma); test: as above
Procedure, shortened: as §1

[6] = tested on: BFTC-909 (Kidney Carcinoma); test: as above
Procedure, shortened: as §1

[7] = tested on: BE-13 (T-Lymphoblastic Leukemia); test: as above
Procedure, shortened: as §1

[8] = tested on: L-428 (Hodgkin's Lymphoma); test: as above
Procedure, shortened: as §1

BPH-1 (Non-Cancerous) = test: as above
Procedure, shortened: as §1

[9] = tested on: NCI-H720 (Other Solid Carcinomas); test: combination Emax (second highest fraction inhibited in the dose matrix, 72 h); higher = more inhibition; extreme values may be limits of the assay
Procedure, shortened: as §1
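Throughout, for Bliss excess, mean over the matrix: after 72 h of two-drug dosing.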

Row | Compound | Bliss excess [1] | Bliss excess [2] | Bliss excess [3] | Bliss excess [4] | Bliss excess [5] | Bliss excess [6] | Bliss excess [7] | Bliss excess [8] | Bliss excess (BPH-1 (Non-Cancerous)) | combination Emax [9]
1 | Cc1cc2ncnn2cc1Nc1ncc2c(n1)n(C1CCOCC1)c(=O)n2C [AZD7648] + C[C@@H]1COCCN1C2=NC(=NC(=C2)C3(CC3)[S@](=N)(=O)C)C4=C5C=CNC5=NC=C4 [AZD6738] (first compound max 10 µM, 7x7, partner max 10 µM) | -0.0692 | 0.0383 | 0.0044 | -0.0021 | -0.0119 | -0.0204 | -0.0121 | -0.0223 | -0.0251 | 0.722
2 | Cc1cc2ncnn2cc1Nc1ncc2c(n1)n(C1CCOCC1)c(=O)n2C [AZD7648] + O=C(c1cc(Cc2n[nH]c(=O)c3ccccc23)ccc1F)N1CCN(C(=O)C2CC2)CC1 [Olaparib] (first compound max 10 µM, 7x7, partner max 10 µM) | -0.0244 | -0.0307 | -0.0157 | -0.0221 | -0.0732 | -0.037 | -0.0079 | -0.019 | 0.0337 | 0.316
3 | COc1cc2c(cc1OCCCCCOc1cc3c(cc1OC)C(=O)N1C=C(C)C[C@H]1C=N3)N=C[C@@H]1CC(C)=CN1C2=O [SG3199] + O=C(c1cc(Cc2n[nH]c(=O)c3ccccc23)ccc1F)N1CCN(C(=O)C2CC2)CC1 [Olaparib] (first compound max 0.001 µM, 7x7, partner max 10 µM) | 0.0077 | -0.077 | -0.0297 | -0.0211 | -0.0292 | -0.0308 | -0.0469 | -0.0207 | 0.0391 | 0.144
